Some test systems named below: CCRF-CEM leukemia; RPMI-8226 leukemia; SN12C renal; NCI-H522 lung; CAKI-1 renal; SK-MEL-28 melanoma; SW-620 colon; DU-145 prostate; MDA-MB-435; HCT-15 colon.
Test in all cases: DTP human tumour cell line panel, 48 h

Each structure is given as a SMILES string. Where “and” joins values, the source holds several entries; their conditions need not be identical. Equal values may be shown once.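 Values below derive from 48-hour exposures of cells grown in 96-well plates, with endpoints linearly interpolated between the two concentrations bracketing the appropriate inhibition level. GI50 marks 50% less growth. TGI: concentration producing complete growth inhibition.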

As a reminder, the TGI is the concentration at which net growth stops. One may read the GI50 as the concentration at which growth is held to half of that of the control.

For the compound `CC1(C)S[C@@H]2[C@H](N3C(=O)c4ccccc4C3=O)CN2[C@H]1NC(=O)N[C@@H]1N2C[C@@H](N3C(=O)c4ccccc4C3=O)[C@H]2SC1(C)C`, the TGI in the experiment on CCRF-CEM leukemia, with RPMI-8226 leukemia, in the experiment with SN12C renal, in the experiment on NCI-H522 lung, with CAKI-1 renal and in the experiment on SK-MEL-28 melanoma was more than 100 µM each time. The TGI in the experiment on SW-620 colon, in the experiment on DU-145 prostate, with MDA-MB-435 and with HCT-15 colon was more than 100 µM throughout.

With `O=C1CSC(=S)N1c1ccco1`, the TGI was more than 100 µM with CCRF-CEM leukemia; more than 100 µM in the experiment on RPMI-8226 leukemia; more than 100 µM with SN12C renal; 64.1 µM with NCI-H522 lung; more than 100 µM in the experiment on CAKI-1 renal; more than 100 µM in the experiment on SK-MEL-28 melanoma. Moreover, the TGI is more than 100 µM in the experiment with SW-620 colon, more than 100 µM with DU-145 prostate, 75.6 µM in the experiment on MDA-MB-435 and 50.9 µM with HCT-15 colon.

With `O=c1oc2ccc(I)cc2c(=O)n1-c1ccc(F)cc1F`, the GI50 with CCRF-CEM leukemia is 3.24 µM; in the experiment on RPMI-8226 leukemia, 1.49 µM; in the experiment with SN12C renal, 2.36 µM; with NCI-H522 lung it was 2.65 µM; in the experiment on CAKI-1 renal, 1.8 µM; in the experiment on SK-MEL-28 melanoma, 1.76 µM. Besides, the GI50 in the experiment with SW-620 colon was 2.73 µM; in the experiment with DU-145 prostate, 3.57 µM; with MDA-MB-435, 2.87 µM; with HCT-15 colon, 2.71 µM. The TGI in the experiment with CCRF-CEM leukemia is 19.2 µM; in the experiment with RPMI-8226 leukemia, 4.83 µM; with SN12C renal, 8.91 µM; in the experiment on NCI-H522 lung, 10.2 µM; in the experiment with CAKI-1 renal, 6.6 µM; in the experiment with SK-MEL-28 melanoma, 6.25 µM. Moreover, the TGI with SW-620 colon came to 11.6 µM; in the experiment on DU-145 prostate, 58.5 µM; in the experiment on MDA-MB-435, 9.18 µM; in the experiment with HCT-15 colon, 11.4 µM.

Regarding `O=C(CCl)NCCNc1nccc(Nc2ccc(S(=O)(=O)Nc3ccccn3)cc2)n1`, the GI50 in the experiment with CCRF-CEM leukemia was 2.19 µM; with RPMI-8226 leukemia, 2.09 µM; in the experiment on SN12C renal, 2.85 µM; in the experiment on NCI-H522 lung, 1.61 µM; with CAKI-1 renal, 2.31 µM; in the experiment on SK-MEL-28 melanoma, 2.97 µM. In addition, the GI50 with SW-620 colon was 2.49 µM; with DU-145 prostate, 2.45 µM; in the experiment with MDA-MB-435 it was 1.96 µM; with HCT-15 colon it was 1.62 µM. Further, the concentration for total growth inhibition (TGI) in the experiment with CCRF-CEM leukemia stood at 9.03 µM; in the experiment on RPMI-8226 leukemia, 7.6 µM; with SN12C renal it was 11.1 µM; in the experiment on NCI-H522 lung, 3.98 µM; with CAKI-1 renal, 10.4 µM; in the experiment on SK-MEL-28 melanoma, 13.5 µM. Besides, the TGI with SW-620 colon was 7.27 µM; in the experiment on DU-145 prostate, 12.3 µM; in the experiment with MDA-MB-435, 7.13 µM; in the experiment on HCT-15 colon, 4.38 µM.

`O=C(O)[C@H](Cc1c[nH]c2ccccc12)N1C(=O)c2ccccc2C1=O`: in the experiment on CCRF-CEM leukemia, the GI50 was more than 100 µM. Further, the TGI in the experiment on CCRF-CEM leukemia, in the experiment on RPMI-8226 leukemia, with SN12C renal, in the experiment on NCI-H522 lung, in the experiment on CAKI-1 renal and in the experiment with SK-MEL-28 melanoma was more than 100 µM each time. Also, the TGI with SW-620 colon, in the experiment on DU-145 prostate, with MDA-MB-435 and in the experiment on HCT-15 colon was more than 100 µM in each case.

Regarding `CC1=CC(C)=NN=C(N)N1S(=O)(=O)c1cc(C)c(Cl)cc1SCc1ccccc1`, the GI50 in the experiment with CCRF-CEM leukemia was 9.15 µM; in the experiment with RPMI-8226 leukemia it was 5.93 µM; with SN12C renal, 32.2 µM; in the experiment on NCI-H522 lung, 7.78 µM; with CAKI-1 renal, more than 100 µM; in the experiment with SK-MEL-28 melanoma, 88.5 µM. The GI50 is 24.8 µM in the experiment with SW-620 colon, 73.4 µM in the experiment with DU-145 prostate, 21.3 µM in the experiment with MDA-MB-435 and 7.86 µM with HCT-15 colon. Besides, the TGI with CCRF-CEM leukemia, in the experiment with RPMI-8226 leukemia, in the experiment with SN12C renal, in the experiment with NCI-H522 lung, in the experiment with CAKI-1 renal and with SK-MEL-28 melanoma was more than 100 µM each time. The TGI in the experiment with SW-620 colon, in the experiment with DU-145 prostate, in the experiment with MDA-MB-435 and in the experiment on HCT-15 colon was more than 100 µM each time.

For `COc1ccc(C#Cc2ccc(=O)oc2-c2cc(OC)c(OC)c(OC)c2)cc1O`, the GI50 in the experiment on CCRF-CEM leukemia was 6.95 µM; in the experiment on RPMI-8226 leukemia it was 7.83 µM; in the experiment on SN12C renal it was 20.7 µM; in the experiment on NCI-H522 lung, 1.1 µM; in the experiment on CAKI-1 renal, 7.6 µM; in the experiment on SK-MEL-28 melanoma, 18.2 µM. In addition, the GI50 with SW-620 colon is 1.22 µM; with DU-145 prostate, 8.96 µM; in the experiment with MDA-MB-435, 0.234 µM; in the experiment on HCT-15 colon it was 2.86 µM. Besides, the TGI is more than 100 µM in the experiment with CCRF-CEM leukemia; more than 88 µM in the experiment on RPMI-8226 leukemia; more than 100 µM in the experiment on SN12C renal; 22.3 µM in the experiment with NCI-H522 lung; more than 100 µM with CAKI-1 renal; more than 100 µM in the experiment with SK-MEL-28 melanoma. The TGI in the experiment with SW-620 colon was more than 100 µM; in the experiment with DU-145 prostate, more than 85.9 µM; in the experiment with MDA-MB-435 it was 2.78 µM; in the experiment with HCT-15 colon, more than 100 µM.

For `CCN(CC)CCCC(C)Nc1ccnc2cc(Cl)ccc12` (centres undefined), the GI50 in the experiment on CCRF-CEM leukemia was 38.8 µM; in the experiment on SN12C renal it was more than 100 µM; in the experiment with NCI-H522 lung it was more than 100 µM; in the experiment with CAKI-1 renal, 28.8 µM; with SK-MEL-28 melanoma, 39.9 µM; with DU-145 prostate, more than 100 µM. Further, the GI50 in the experiment on MDA-MB-435 is 20.3 µM; in the experiment with HCT-15 colon it was 57.9 µM. In addition, the TGI in the experiment on CCRF-CEM leukemia was more than 100 µM; in the experiment on RPMI-8226 leukemia it was 69.6 µM; in the experiment with SN12C renal, > 100 µM and 97.1 µM; in the experiment with NCI-H522 lung it was more than 100 µM; in the experiment on CAKI-1 renal, 79.7 µM and 55.7 µM; in the experiment with SK-MEL-28 melanoma it was > 100 µM and 42.3 µM. For the same compound, the TGI in the experiment with SW-620 colon was more than 100 µM; in the experiment with DU-145 prostate it was more than 100 µM; in the experiment with MDA-MB-435, 43.3 µM and 37.3 µM; in the experiment on HCT-15 colon, more than 100 µM.
